The source of these data is patent EP4617278A1, “NUCLEOTIDE ANALOG, AND COMPOSITION AND USE THEREOF” (priority 2022, dated 2024).

In this experiment the test system is SARS-CoV-2 replicon. The experiment is classed as cell-based. The following applies: read-out: SARS-CoV-2 Replicon (Huh-7cell) EC50. Background: In antiviral work, replicon cells carry a viral genome segment that copies itself.

Take `CCC(C)(C)COC(=O)[C@H](C)NP(=O)(OCOC(=O)OC(C)C)OC[C@H]1O[C@@](C#N)(c2ccc3c(N)ncnn23)[C@H](OC(=O)C(C)C)[C@@H]1OC(=O)C(C)C` (mixture of isomers) [Compound 14, (2R,3R,4R,5R)-2-(4-aminopyrrolo[2,1-f][1,2,4]triazin-7-yl)-2-cyano-5-((((((S)-1-(2,2-dimethylbutoxy)-1-oxopropan-2-yl)amino)(((isopropoxycarbonyl)oxy)methoxy)phosphoryl)oxy)methyl)tetrahydrofuran-3,4-diyl bis(2-methylpropionate)]: the EC50 (in general, the concentration that produces a half-maximal response) lay within 0.01 to 0.05 µM.

Regarding `CC(C)C(=O)O[C@H]1[C@@H](OC(=O)C(C)C)[C@](C#N)(c2ccc3c(N)ncnn23)O[C@@H]1COP(=O)(OCCSC(=O)C(C)(C)C)Oc1ccc(C(C)(C)C)cc1` (mixture of isomers) [Compound 27, (2R,3R,4R,5R)-2-(4-aminopyrrolo[2,1-f][1,2,4]triazin-7-yl)-5-((((4-tert-butylphenoxy)(2-(pivaloylthio)ethoxy)phosphoryl)oxy)methyl)-2-cyanotetrahydrofuran-3,4-diyl bis(2-methylpropionate)], the EC50 lay within 0.01 to 0.05 µM.

For the compound `CCCCCCCCCCCCCCCCOCCCOP(=O)(OCOC(=O)OC(C)C)OC[C@H]1O[C@@](C#N)(c2ccc3c(N)ncnn23)[C@H](OC(=O)C(C)C)[C@@H]1OC(=O)C(C)C` (mixture of isomers) [Compound 36, (2R,3R,4R,5R)-2-(4-aminopyrrolo[2,1-f][1,2,4]triazin-7-yl)-2-cyano-5-((((3-(hexadecyloxy)propoxy)(((isopropoxycarbonyl)oxy)methoxy)phosphoryl)oxy)methyl)tetr ahydrofuran-3,4-diyl bis(2-methylpropionate)], the EC50 was 0.05 to 0.5 µM.

With `CCC(=O)O[C@H]1[C@@H](OC(=O)CC)[C@](C#N)(c2ccc3c(N)ncnn23)O[C@@H]1CO[P@](=O)(N[C@@H](C)C(=O)OC(C)C)OCOC(=O)OC(C)C` [Compound 2a, (2R,3R,4R,5R)-2-(4-aminopyrrolo[2,1-f][1,2,4]triazin-7-yl)-2-cyano-5-((((R)-(((S)-1-isopropoxy-1-oxopropan-2-yl)amino)(((isopropoxycarbonyl)oxy)methoxy)phosphoryl)oxy)methyl)tetrahydrofuran-3,4-diyl dipropionate], the EC50 is 0.005 to 0.01 µM.

Take `CCC(=O)O[C@H]1[C@@H](OC(=O)CC)[C@](C#N)(c2ccc3c(N)ncnn23)O[C@@H]1CO[P@@](=O)(N[C@@H](C)C(=O)OC(C)C)OCOC(=O)OC(C)C` [Compound 2b, (2R,3R,4R,5R)-2-(4-aminopyrrolo[2,1-f][1,2,4]triazin-7-yl)-2-cyano-5-((((S)-(((S)-1-isopropoxy-1-oxopropan-2-yl)amino)(((isopropoxycarbonyl)oxy)methoxy)phosphoryl)oxy)methyl)tetrahydrofuran-3,4-diyl dipropionate]: the EC50 was not above 0.005 µM.

With `CC(C)OC(=O)OCO[P@@](=O)(N[C@@H](C)C(=O)OC(C)C)OC[C@H]1O[C@@](C#N)(c2ccc3c(N)ncnn23)[C@H](OC(=O)C(C)C)[C@@H]1OC(=O)C(C)C` [Compound 3a, (2R,3R,4R,5R)-2-(4-aminopyrrolo[2,1-f][1,2,4]triazin-7-yl)-2-cyano-5-((((R)-(((S)-1-isopropoxy-1-oxopropan-2-yl)amino)(((isopropoxycarbonyl)oxy)methoxy)phosphoryl)oxy)methyl)tetrahydrofuran-3,4-diyl bis(2-methylpropionate)], the concentration giving a half-maximal response (EC50) lay in the range of 0.01 to 0.05 µM.

With `CC(C)OC(=O)OCO[P@](=O)(N[C@@H](C)C(=O)OC(C)C)OC[C@H]1O[C@@](C#N)(c2ccc3c(N)ncnn23)[C@H](OC(=O)C(C)C)[C@@H]1OC(=O)C(C)C` [Compound 3b, (2R,3R,4R,5R)-2-(4-aminopyrrolo[2,1-f][1,2,4]triazin-7-yl)-2-cyano-5-((((S)-(((S)-1-isopropoxy-1-oxopropan-2-yl)amino)(((isopropoxycarbonyl)oxy)methoxy)phosphoryl)oxy)methyl)tetrahydrofuran-3,4-diyl bis(2-methylpropionate)], the EC50 is less than 0.005 µM.

As to `CC(C)OC(=O)OCO[P@@](=O)(N[C@@H](C)C(=O)OC(C)C)OC[C@H]1O[C@@](C#N)(c2ccc3c(N)ncnn23)[C@H](OC(=O)C(C)(C)C)[C@@H]1OC(=O)C(C)(C)C` [Compound 4a, (2R,3R,4R,5R)-2-(4-aminopyrrolo[2,1-f][1,2,4]triazin-7-yl)-2-cyano-5-((((R)-(((S)-1-isopropoxy-1-oxopropan-2-yl)amino)(((isopropoxycarbonyl)oxy)methoxy)phosphoryl)oxy)methyl)tetrahydrofuran-3,4-diyl bis(2,2-dimethylpropionate)], the EC50 was in the range of 0.05 to 0.5 µM.

Turning to `CC(C)OC(=O)OCO[P@](=O)(N[C@@H](C)C(=O)OC(C)C)OC[C@H]1O[C@@](C#N)(c2ccc3c(N)ncnn23)[C@H](OC(=O)C(C)(C)C)[C@@H]1OC(=O)C(C)(C)C` [Compound 4b, (2R,3R,4R,5R)-2-(4-aminopyrrolo[2,1-f][1,2,4]triazin-7-yl)-2-cyano-5-((((S)-(((S)-1-isopropoxy-1-oxopropan-2-yl)amino)(((isopropoxycarbonyl)oxy)methoxy)phosphoryl)oxy)methyl)tetrahydrofuran-3,4-diyl bis(2,2-dimethylpropionate)], the concentration for a half-maximal effect (EC50) lay in the range of 0.05 to 0.5 µM.

On to `CCC(=O)O[C@H]1[C@@H](OC(=O)CC)[C@](C#N)(c2ccc3c(N)ncnn23)O[C@@H]1CO[P@](=O)(N[C@@H](C)C(=O)OCC(CC)CC)OCOC(=O)OC(C)C` [Compound 6a, (2R,3R,4R,5R)-2-(4-aminopyrrolo[2,1-f][1,2,4]triazin-7-yl)-2-cyano-5-((((R)-(((S)-1-(2-ethylbutoxy)-1-oxopropan-2-yl)amino)(((isopropoxycarbonyl)oxy)methoxy)phosphoryl)oxy)methyl)tetrahydrofuran-3,4-diyl dipropionate], for which the EC50 lay within 0.005 to 0.01 µM.

As to `CCC(=O)O[C@H]1[C@@H](OC(=O)CC)[C@](C#N)(c2ccc3c(N)ncnn23)O[C@@H]1CO[P@@](=O)(N[C@@H](C)C(=O)OCC(CC)CC)OCOC(=O)OC(C)C` [Compound 6b, (2R,3R,4R,5R)-2-(4-aminopyrrolo[2,1-f][1,2,4]triazin-7-yl)-2-cyano-5-((((S)-(((S)-1-(2-ethylbutoxy)-1-oxopropan-2-yl)amino)(((isopropoxycarbonyl)oxy)methoxy)phosphoryl)oxy)methyl)tetrahydrofuran-3,4-diyl dipropionate], the EC50 was not above 0.005 µM.

Turning to `CCC(CC)COC(=O)[C@H](C)N[P@](=O)(OCOC(=O)OC(C)C)OC[C@H]1O[C@@](C#N)(c2ccc3c(N)ncnn23)[C@H](OC(=O)C(C)C)[C@@H]1OC(=O)C(C)C` [Compound 7a, (2R,3R,4R,5R)-2-(4-aminopyrrolo[2,1-f][1,2,4]triazin-7-yl)-2-cyano-5-((((R)-(((S)-1-(2-ethylbutoxy)-1-oxopropan-2-yl)amino)(((isopropoxycarbonyl)oxy)methoxy)phosphoryl)oxy)methyl)tetrahydrofuran-3,4-diyl bis(2-methylpropionate)], the EC50 fell in the range of 0.01 to 0.05 µM.

On to `CCC(CC)COC(=O)[C@H](C)N[P@@](=O)(OCOC(=O)OC(C)C)OC[C@H]1O[C@@](C#N)(c2ccc3c(N)ncnn23)[C@H](OC(=O)C(C)C)[C@@H]1OC(=O)C(C)C` [Compound 7b, (2R,3R,4R,5R)-2-(4-aminopyrrolo[2,1-f][1,2,4]triazin-7-yl)-2-cyano-5-((((S)-(((S)-1-(2-ethylbutoxy)-1-oxopropan-2-yl)amino)(((isopropoxycarbonyl)oxy)methoxy)phosphoryl)oxy)methyl)tetrahydrofuran-3,4-diyl bis(2-methylpropionate)], for which the EC50 is 0.01 to 0.05 µM.

Regarding `CCC(CC)COC(=O)[C@H](C)N[P@](=O)(OCOC(=O)C(C)(C)C)OC[C@H]1O[C@@](C#N)(c2ccc3c(N)ncnn23)[C@H](OC(C)=O)[C@@H]1OC(C)=O` [Compound 9a, (2R,3R,4R,5R)-2-(4-aminopyrrolo[2,1-f][1,2,4]triazin-7-yl)-2-cyano-5-((((R)-(((S)-1-(2-ethylbutoxy)-1-oxopropan-2-yl)amino)((pivaloyloxy)methoxy)phosphoryl)oxy)methyl)tetrahydrofuran-3,4-diyl diacetate], the EC50 lay in the range of 0.005 to 0.01 µM.

In the case of `CCC(CC)COC(=O)[C@H](C)N[P@@](=O)(OCOC(=O)C(C)(C)C)OC[C@H]1O[C@@](C#N)(c2ccc3c(N)ncnn23)[C@H](OC(C)=O)[C@@H]1OC(C)=O` [Compound 9b, (2R,3R,4R,5R)-2-(4-aminopyrrolo[2,1-f][1,2,4]triazin-7-yl)-2-cyano-5-((((S)-(((S)-1-(2-ethylbutoxy)-1-oxopropan-2-yl)amino)((pivaloyloxy)methoxy)phosphoryl)oxy)methyl)tetrahydrofuran-3,4-diyl diacetate], the EC50 was not above 0.005 µM.

Consider `CCC(=O)O[C@H]1[C@@H](OC(=O)CC)[C@](C#N)(c2ccc3c(N)ncnn23)O[C@@H]1CO[P@](=O)(N[C@@H](C)C(=O)OCC(CC)CC)OCOC(=O)C(C)(C)C` [Compound 10a, (2R,3R,4R,5R)-2-(4-aminopyrrolo[2,1-f][1,2,4]triazin-7-yl)-2-cyano-5-((((R)-(((S)-1-(2-ethylbutoxy)-1-oxopropan-2-yl)amino)((pivaloyloxy)methoxy)phosphoryl)oxy)methyl)tetrahydrofuran-3,4-diyl dipropionate], for which the EC50 lay within 0.01 to 0.05 µM.

As for `CCC(=O)O[C@H]1[C@@H](OC(=O)CC)[C@](C#N)(c2ccc3c(N)ncnn23)O[C@@H]1CO[P@@](=O)(N[C@@H](C)C(=O)OCC(CC)CC)OCOC(=O)C(C)(C)C` [Compound 10b, (2R,3R,4R,5R)-2-(4-aminopyrrolo[2,1-f][1,2,4]triazin-7-yl)-2-cyano-5-((((S)-(((S)-1-(2-ethylbutoxy)-1-oxopropan-2-yl)amino)((pivaloyloxy)methoxy)phosphoryl)oxy)methyl)tetrahydrofuran-3,4-diyl dipropionate], the EC50 was not above 0.005 µM.

For `CCC(CC)COC(=O)[C@H](C)N[P@](=O)(OCOC(=O)C(C)(C)C)OC[C@H]1O[C@@](C#N)(c2ccc3c(N)ncnn23)[C@H](OC(=O)C(C)C)[C@@H]1OC(=O)C(C)C` [Compound 11a, (2R,3R,4R,5R)-2-(4-aminopyrrolo[2,1-f][1,2,4]triazin-7-yl)-2-cyano-5-((((R)-(((S)-1-(2-ethylbutoxy)-1-oxopropan-2-yl)amino)((pivaloyloxy)methoxy)phosphoryl)oxy)methyl)tetrahydrofuran-3,4-diyl bis(2-methylpropionate)], the EC50 fell in the range of 0.01 to 0.05 µM.
